Columns and labels:
Type in all cases: in vivo
kochia (Kochia scoparia) [1] = experiment: Test A preemergence, visual injury rating; settings: for Plant response rating, Kochia: 31 g ai/ha, 0 to 100 scale, 0 no effect, 100 complete control; for Kochia plant response rating: 125 g ai/ha, 0 to 100 scale (0 no effect, 100 complete control)
Summary of the method: (§1)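 Scoring: eye-based comparison with untreated controls, 0 for no effect through 100 for complete control, at about day 10. Treatments: directed soil spray preemergence; foliar spray postemergence on 2–10 cm plants at the one- to two-leaf stage. Medium: loam soil with sand.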

[2] = tested on: pigweed (Amaranthus retroflexus); experiment: Test A preemergence, visual injury rating; settings: for Plant response rating, Pigweed: 31 g ai/ha, 0 to 100 scale, 0 no effect, 100 complete control; for Pigweed plant response rating: 125 g ai/ha, 0 to 100 scale (0 no effect, 100 complete control)
Summary of the method: as §1

[3] = tested on: barnyardgrass (Echinochloa crus-galli); experiment: Test A postemergence, visual injury rating; settings: 0 is no effect, 100 is complete control; for Barnyardgrass plant response rating: 0 to 100 scale, approximately 10 days
Summary of the method: as §1

kochia (Kochia scoparia) [4] = experiment: Test A postemergence, visual injury rating; settings: 0 to 100 scale, 0 is no effect, 100 is complete control, approximately 10 days
Summary of the method: as §1

[5] = tested on: ragweed (common ragweed, Ambrosia elatior); experiment: Test A postemergence, visual injury rating; settings: 0 to 100 scale, 0 is no effect, 100 is complete control, approximately 10 days
Summary of the method: as §1

[6] = tested on: Italian ryegrass (Lolium multiflorum); experiment: Test A postemergence, visual injury rating; settings: 0 to 100 scale, 0 is no effect, 100 is complete control, approximately 10 days
Summary of the method: as §1

[7] = tested on: giant foxtail (Setaria faberii); experiment: Test A postemergence, visual injury rating; settings: 0 is no effect, 100 is complete control; for Foxtail, Giant plant response rating: 0 to 100 scale, approximately 10 days
Summary of the method: as §1

[8] = tested on: wheat (Triticum aestivum); experiment: Test A postemergence, visual injury rating; settings: 0 to 100 scale, 0 is no effect, 100 is complete control, approximately 10 days
Summary of the method: as §1

[9] = tested on: galium (catchweed bedstraw, Galium aparine); experiment: Test A postemergence, visual injury rating; settings: 0 is no effect, 100 is complete control; for Galium plant response rating: 0 to 100 scale, approximately 10 days
Summary of the method: as §1

[10] = tested on: pigweed (Amaranthus retroflexus); experiment: Test A postemergence, visual injury rating; settings: 0 to 100 scale, 0 is no effect, 100 is complete control, approximately 10 days
Summary of the method: as §1

corn (Zea mays) = experiment: Test A postemergence, visual injury rating; settings: 0 is no effect, 100 is complete control; for Corn plant response rating: 0 to 100 scale, approximately 10 days
Summary of the method: as §1

[11] = tested on: blackgrass (Alopecurus myosuroides); experiment: Test A postemergence, visual injury rating; settings: 0 is no effect, 100 is complete control; for Blackgrass plant response rating: 0 to 100 scale, approximately 10 days
Summary of the method: as §1

[12] = tested on: barnyardgrass (Echinochloa crus-galli); experiment: Test B flooded paddy test, plant response rating; settings: 250 g ai/ha; Flood; scale of 0 to 100 where 0 is no effect and 100 is complete control; 13 to 15 days
Summary of the method: (§2)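 Pots were flooded to 3 cm above the soil surface at treatment, compound applied directly to the paddy water, and that depth held throughout. Plants were kept in a greenhouse for 13 to 15 days, then visually rated against untreated controls.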

[13] = tested on: ducksalad (Heteranthera limosa); experiment: Test B flooded paddy test, plant response rating; settings: 250 g ai/ha; Flood; scale of 0 to 100 where 0 is no effect and 100 is complete control; 13 to 15 days
Summary of the method: as §2

rice (Oryza sativa) = experiment: Test B flooded paddy test, plant response rating; settings: 250 g ai/ha; Flood; scale of 0 to 100 where 0 is no effect and 100 is complete control; 13 to 15 days
Summary of the method: as §2

[14] = tested on: sedge, umbrella (small-flower umbrella sedge, Cyperus difformis); experiment: Test B flooded paddy test, plant response rating; settings: 250 g ai/ha; Flood; scale of 0 to 100 where 0 is no effect and 100 is complete control; 13 to 15 days
Summary of the method: as §2

kochia (Kochia scoparia) [15] = experiment: Test C postemergence, plant response rating; settings: for Kochia plant response rating: scale 0 to 100 (0 no effect, 100 complete control)
Summary of the method: (§3)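 Preemergence: seeds sown in loam–sand blend or silt loam and sprayed with test chemicals in a non-phytotoxic surfactant-containing solvent. Postemergence: potted plants at 2–18 cm (1–4-leaf stage) sprayed with the same formulation. After 13–15 d in greenhouse, visual rating versus controls on 0 (no effect) to 100 (complete control) scale.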

[16] = tested on: morningglory (Ipomoea coccinea); experiment: Test C postemergence, plant response rating; settings: for Morningglory plant response rating: scale 0 to 100 (0 no effect, 100 complete control)
Summary of the method: as §3

[17] = tested on: chickweed (common chickweed, Stellaria media); experiment: Test C postemergence, plant response rating; settings: for Chickweed plant response rating: scale 0 to 100 (0 no effect, 100 complete control)
Summary of the method: as §3

Row | Structure (SMILES) | Plant response rating, Kochia (kochia (Kochia scoparia) [1]) | Kochia plant response rating (kochia (Kochia scoparia) [1]) | Plant response rating, Pigweed [2] | Pigweed plant response rating [2] | Barnyardgrass plant response rating ([3]; 31 g ai/ha) | Kochia plant response rating (kochia (Kochia scoparia) [4]; 31 g ai/ha) | Kochia plant response rating (kochia (Kochia scoparia) [4]; 125 g ai/ha) | Ragweed plant response rating ([5]; 31 g ai/ha) | Ragweed plant response rating ([5]; 125 g ai/ha) | Ryegrass, Italian plant response rating ([6]; 31 g ai/ha) | Ryegrass, Italian plant response rating ([6]; 125 g ai/ha) | Foxtail, Giant plant response rating ([7]; 31 g ai/ha) | Wheat plant response rating ([8]; 31 g ai/ha) | Wheat plant response rating ([8]; 125 g ai/ha) | Galium plant response rating ([9]; 31 g ai/ha) | Pigweed plant response rating ([10]; 31 g ai/ha) | Pigweed plant response rating ([10]; 125 g ai/ha) | Corn plant response rating (corn (Zea mays); 31 g ai/ha) | Blackgrass plant response rating ([11]; 31 g ai/ha) | Plant response rating, Barnyardgrass [12] | other results
1 | N#Cc1cccc(Oc2ncc(Cl)cn2)c1COCCC(F)(F)F [Compound 80] | 100 | 100 | 100 | 100 | 30 | 50 | 70 | 10 | 30 | 0 | 50 | 30 | 0 | 40 | 60 | 80 | 100 | 10 | 30 | 75 | Barnyardgrass plant response rating (0 to 100 scale) ([3]; 125 g ai/ha): 90; Foxtail, Giant plant response rating (0 to 100 scale) ([7]; 125 g ai/ha): 90; Galium plant response rating (0 to 100 scale) ([9]; 125 g ai/ha): 90; Corn plant response rating (0 to 100 scale) (corn (Zea mays); 125 g ai/ha): 60; Blackgrass plant response rating (0 to 100 scale) ([11]; 125 g ai/ha): 90; Plant response rating, Ducksalad [13]: 100; Plant response rating, Rice (rice (Oryza sativa)): 55; Plant response rating, Sedge, Umbrella [14]: 100; Plant response rating, Kochia (kochia (Kochia scoparia) [15]; 16 g ai/ha, scale of 0 to 100): 55; Plant response rating, Kochia (kochia (Kochia scoparia) [15]; 31 g ai/ha, scale 0 to 100): 75; Kochia plant response rating (kochia (Kochia scoparia) [15]; 62 g ai/ha): 80; Kochia plant response rating (kochia (Kochia scoparia) [15]; 125 g ai/ha): 80; Plant response rating, Morningglory ([16]; 16 g ai/ha, scale of 0 to 100): 25; Plant response rating, Morningglory ([16]; 31 g ai/ha, scale 0 to 100): 35; Morningglory plant response rating ([16]; 62 g ai/ha): 55; Morningglory plant response rating ([16]; 125 g ai/ha): 60; Plant response rating, Chickweed ([17]; 16 g ai/ha, scale of 0 to 100): 60; Plant response rating, Chickweed ([17]; 31 g ai/ha, scale 0 to 100): 75; Chickweed plant response rating ([17]; 62 g ai/ha): 75; Chickweed plant response rating ([17]; 125 g ai/ha): 90
2 | O=C(CCCCC(F)(F)F)c1c(Br)cccc1Oc1ncc(Cl)cn1 [Compound 82] | 70 | 80 | 90 | 100 | 30 | 80 | 100 | 40 | 40 | 40 | 60 | 30 | 10 | 30 | 90 | 100 | 100 | 20 | 40 | 35 | Barnyardgrass plant response rating (0 to 100 scale) ([3]; 125 g ai/ha): 100; Foxtail, Giant plant response rating (0 to 100 scale) ([7]; 125 g ai/ha): 100; Galium plant response rating (0 to 100 scale) ([9]; 125 g ai/ha): 100; Corn plant response rating (0 to 100 scale) (corn (Zea mays); 125 g ai/ha): 30; Blackgrass plant response rating (0 to 100 scale) ([11]; 125 g ai/ha): 40; Plant response rating, Ducksalad [13]: 100; Plant response rating, Rice (rice (Oryza sativa)): 30; Plant response rating, Sedge, Umbrella [14]: 95; Plant response rating, Kochia (kochia (Kochia scoparia) [15]; 16 g ai/ha, scale of 0 to 100): 80; Plant response rating, Kochia (kochia (Kochia scoparia) [15]; 31 g ai/ha, scale 0 to 100): 95; Kochia plant response rating (kochia (Kochia scoparia) [15]; 62 g ai/ha): 95; Kochia plant response rating (kochia (Kochia scoparia) [15]; 125 g ai/ha): 95; Plant response rating, Morningglory ([16]; 16 g ai/ha, scale of 0 to 100): 25; Plant response rating, Morningglory ([16]; 31 g ai/ha, scale 0 to 100): 40; Morningglory plant response rating ([16]; 62 g ai/ha): 30; Morningglory plant response rating ([16]; 125 g ai/ha): 75; Plant response rating, Chickweed ([17]; 16 g ai/ha, scale of 0 to 100): 55; Plant response rating, Chickweed ([17]; 31 g ai/ha, scale 0 to 100): 85; Chickweed plant response rating ([17]; 62 g ai/ha): 90; Chickweed plant response rating ([17]; 125 g ai/ha): 90
3 | FC(F)(F)CCCc1c(Br)cccc1Oc1ncc(Cl)cn1 [Compound 89] | 10 | 50 | 10 | 100 | 30 | 80 | 90 | 10 | 10 | 10 | 30 | 20 | 0 | 20 | 30 | 90 | 90 | 10 | 20 | 40 | Barnyardgrass plant response rating ([3]; 125 g ai/ha): 90; Foxtail, Giant plant response rating ([7]; 125 g ai/ha): 50; Galium plant response rating ([9]; 125 g ai/ha): 80; Corn plant response rating (corn (Zea mays); 125 g ai/ha): 20; Blackgrass plant response rating ([11]; 125 g ai/ha): 60; Plant response rating, Ducksalad [13]: 95; Plant response rating, Rice (rice (Oryza sativa)): 40; Plant response rating, Sedge, Umbrella [14]: 95; Plant response rating, Kochia (kochia (Kochia scoparia) [15]; 16 g ai/ha, scale of 0 to 100): 70; Plant response rating, Kochia (kochia (Kochia scoparia) [15]; 31 g ai/ha, scale 0 to 100): 75; Kochia plant response rating (kochia (Kochia scoparia) [15]; 62 g ai/ha): 80; Kochia plant response rating (kochia (Kochia scoparia) [15]; 125 g ai/ha): 95; Plant response rating, Morningglory ([16]; 16 g ai/ha, scale of 0 to 100): 5; Plant response rating, Morningglory ([16]; 31 g ai/ha, scale 0 to 100): 15; Morningglory plant response rating ([16]; 62 g ai/ha): 25; Morningglory plant response rating ([16]; 125 g ai/ha): 55; Plant response rating, Chickweed ([17]; 16 g ai/ha, scale of 0 to 100): 65; Plant response rating, Chickweed ([17]; 31 g ai/ha, scale 0 to 100): 95; Chickweed plant response rating ([17]; 62 g ai/ha): 85; Chickweed plant response rating ([17]; 125 g ai/ha): 100
4 | O=C(CCC(F)(F)F)c1c(Br)cccc1Oc1ncc(Cl)cn1 [Compound 92] | 90 | 90 | 100 | 100 | 40 | 100 | 100 | 0 | 20 | 0 | 50 | 50 | 0 | 20 | 90 | 100 | 100 | 10 | 10 | 25 | Barnyardgrass plant response rating ([3]; 125 g ai/ha): 100; Foxtail, Giant plant response rating ([7]; 125 g ai/ha): 100; Galium plant response rating ([9]; 125 g ai/ha): 100; Corn plant response rating (corn (Zea mays); 125 g ai/ha): 40; Blackgrass plant response rating ([11]; 125 g ai/ha): 50; Plant response rating, Ducksalad [13]: 100; Plant response rating, Rice (rice (Oryza sativa)): 0; Plant response rating, Sedge, Umbrella [14]: 100; Plant response rating, Kochia (kochia (Kochia scoparia) [15]; 16 g ai/ha, scale of 0 to 100): 100; Plant response rating, Kochia (kochia (Kochia scoparia) [15]; 31 g ai/ha, scale 0 to 100): 100; Kochia plant response rating (kochia (Kochia scoparia) [15]; 62 g ai/ha): 100; Kochia plant response rating (kochia (Kochia scoparia) [15]; 125 g ai/ha): 100; Plant response rating, Morningglory ([16]; 16 g ai/ha, scale of 0 to 100): 20; Plant response rating, Morningglory ([16]; 31 g ai/ha, scale 0 to 100): 85; Morningglory plant response rating ([16]; 62 g ai/ha): 65; Morningglory plant response rating ([16]; 125 g ai/ha): 85; Plant response rating, Chickweed ([17]; 16 g ai/ha, scale of 0 to 100): 100; Plant response rating, Chickweed ([17]; 31 g ai/ha, scale 0 to 100): 100; Chickweed plant response rating ([17]; 62 g ai/ha): 100; Chickweed plant response rating ([17]; 125 g ai/ha): 100
